Experimental data published in patent US8273752B2, “Substituted imidazopyrimidines and triazolopyrimidines” (Bayer Intellectual Property GmbH, priority 2007, dated 2012).

biological target: T1, GSK3β (Homo sapiens, UniProt P49841); assay: GSK3β biochemical in vitro assay (fluorescence, NADH-coupled); conditions: 5 nM GSK3β, 40 μM substrate GSM, 50 μM ATP, 30° C., 2 hours
T1 construct: purchased Upstate xy
Experimental: The inhibitory activity of active substances is determined in a biochemical assay. The ingredients required for this purpose are mixed in a black 384-well microtitre plate with transparent base (from Greiner, catalogue number 781092). The requirements in this connection for each well of the 384-well microtitre plate are 5 nM GSK3β (from Upstate, catalogue number xy), 40 μM GSK3B substrate GSM (sequence H-RRRPASVPPSPSLSRHS-(pS)-HQRR, from Upstate, catalogue number 2-533), 30 μM nicotinamide adenine dinucleotide NADH (Roche Diagnostics, catalogue number 10107735), 50 μM adenosine triphosphate ATP (from Sigma, catalogue number A7966), and 2 mM phosphoenolpyruvate (from Roche, catalogue number 128112). The required reaction buffer in which the biochemical reaction takes place consists of 50 mM Trizma hydrochloride tris-HCl pH: 7.5 (from Sigma, catalogue number T3253), 5 mM magnesium chloride MgCl2 (from Sigma, catalogue number M8266), 0.2 mM DL-dithiothreitol DTT (from Sigma, catalogue number D9779), 2 mM ethylenediaminethertetraacid EDTA (from Sigma, catalogue number E6758), 0.01% Triton X-100 (from Sigma, catalogue number T8787) and 0.05% bovine serum albumin BSA (from Sigma, catalogue number B4287).
Active substances are dissolved in dimethyl sulphoxide DMSO (from Sigma, catalogue number D8418) in a concentration of 10 mM. Active substances are added in serial concentrations of 10 μM, 1 μM, 0.1 μM, 0.01 μM, 0.001 μM, 0.0001 μM, 0.00001 μM, 0.000001 μM to the mixtures of the biochemical reaction. As control, dimethyl sulphoxide is added instead of substance in a final concentration of 0.1%.
The reaction is incubated at 30° C. for 2 hours and then the resulting fluorescence is measured in a Tecan Safire-XFLUOR4 instrument, version V4.50 (serial number 12901300283) with the specifications: measurement mode—fluorescence measured from below, extinction wavelength 340 nm, emission wavelength 465 nm, slit width extinction 5 nm, slit width emission 5 nm, gain mode 120, delay 0 μs, number of light flashes per measurement 3, and an integration time of 40 μs.
The activity of the active substances is calculated in relation to these 0% and 100%.

T1 sequence (P49841 whole entry, species assumed): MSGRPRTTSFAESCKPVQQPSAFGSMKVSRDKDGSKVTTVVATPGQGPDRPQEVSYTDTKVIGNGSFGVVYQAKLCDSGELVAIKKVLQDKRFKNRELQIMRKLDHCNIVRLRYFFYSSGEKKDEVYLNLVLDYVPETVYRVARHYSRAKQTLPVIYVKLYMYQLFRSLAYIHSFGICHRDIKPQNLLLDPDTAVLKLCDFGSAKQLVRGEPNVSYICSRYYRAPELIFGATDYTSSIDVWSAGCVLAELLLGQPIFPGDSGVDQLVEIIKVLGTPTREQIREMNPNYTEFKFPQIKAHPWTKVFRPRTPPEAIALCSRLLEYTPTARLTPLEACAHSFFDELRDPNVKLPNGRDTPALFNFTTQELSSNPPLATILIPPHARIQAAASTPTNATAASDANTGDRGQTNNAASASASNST

Q: For `Nc1nc(NCCNc2nc(-c3ccc(Cl)cc3Cl)cc3nc(CN4CCOCC4)nn23)ccc1C(=O)C(F)(F)F` [Example 194], which IC50 is on record?
A: 0.7 nM

Q: `N#Cc1sc(NC2CCCN(c3nc(-c4ccc(Cl)cc4Cl)cc4ncnn34)C2)nc1N` (stereo not drawn) [Example 202] was tested. Which IC50 did it give?
A: 5 nM

Q: For `Nc1nc(NCCNc2nc(-c3ccc(Cl)cc3Cl)cc3ncnn23)sc1C(=O)C(F)(F)F` [Example 203], which IC50 is on record?
A: 3 nM
